The text below walks through data of US20150233930A1, “METHODS AND COMPOSITIONS EMPLOYING SECRETED PROTEINS THAT REFLECT AUTOPHAGY DYNAMICS WITHIN TUMOR CELLS” (The Wistar Institute of Anatomy and Biology, priority 2014, published 2015).

The structures appear in SMILES notation.

In one data set the test system is 1205Lu cells. Briefly: LC3 immunoblotting of lysates from cells treated with rapamycin or hydroxychloroquine. The format is cell-based, human. The conditions noted are these: 1205Lu cells compared to WM793 cells. How it is done:
Melanoma cell lines […] and 1205Lu (as well as other cell lines identified in the appropriate figures) were maintained in RPMI 1640 (Invitrogen) supplemented with 10% fetal bovine serum (Sigma), 50 μg/mL gentamicin, and 25 mmol/L HEPES in the presence of 5% CO2 at 37° C. The 3D spheroid cultures were prepared as previously described^1 and cell death was evaluated using the Live/Dead Assay (Invitrogen). Electron microscopy was performed as previously described^1. Immunoblotting was performed on whole cell lysates as previously described. A commercially available polyclonal antibody against actin (I-19) was used (Santa Cruz). A polyclonal antibody against LC3 that was produced by QCB Biologicals was used. Band densities from Western Blots were quantified using Adobe Photoshop CS4 Extended.
The genetically paired melanoma cell lines, WM793 and 1205Lu, were used for initial secretome comparisons due to the inherent genetic heterogeneity across unrelated melanoma cell lines. The 1205Lu cell line is a subclone derived from the lung metastasis of WM793 in athymic mice, thus minimizing protein expression changes caused by genetic differences^14. To determine autophagic capacity in these paired cell lines, electron microscopy of WM793 and 1205Lu grown in complete medium was used to quantify AVs (FIG. 1A). […]
For orientation: In western blotting, separated proteins are transferred to a membrane and probed.

Another data set deals with tumor cells. To be noted: preclinical models of melanoma; cited from earlier work.

Turning to `CCN(CCO)CCCC(C)Nc1ccnc2cc(Cl)ccc12` (centres unmarked) [hydroxychloroquine], the LC3II/LC3I ratio entry with 1205Lu cells was “increases”. The “effect on cytotoxic effects of alkylating agents” value with tumor cells is given as “augment the cytotoxic effects of alkylating agents”.
